Results published in US20210276967A1 (OSPEDALE SAN RAFFAELE S.R.L., priority 2018, published 2021).

System: HBV
Experiment: not given
Conditions: Phase 1b clinical studies; cited from earlier work

Which results are given for O=C(Nc1cc(F)c(F)c(F)c1)c1ccc(F)c(S(=O)(=O)N2CCC(O)CC2)c1 [NVR3-778]?
reduction in HBV DNA: significant reduction; reduction in serum HBV RNA: significant reduction

System: HBV
Experiment: HBV inhibition in HepAD38 cells, extracellular HBV DNA by direct qPCR
Assay type: cell-based, hepatitis B virus
Conditions: Hepatitis B virus; 0.1 μM, HepAD38, 96 hours; read-out: HBV inhibition % (conc μM)
Text: HepAD38 cell line (Ladner et al., Antimicrob Agents Chemother, 1997, 41, 1715-20) was used for HBV inhibition assays. HepAD38 is a subclone, derived from hepatoblastoma cell line HepG2 (ATCC® Number: HB-8065™), that expresses HBV genome under the transcriptional control of a tetracycline-responsive promoter in a TET-OFF system: addition of tetracycline (TET) or doxycycline suppresses HBV replication, while its removal switches on the process allowing HBV viral particles release in the cell supernatant. HepAD38 cell line is maintained in DMEM/F12, supplemented with 10% of fetal bovine serum, 1% of glutamine, 1% of penicillin/streptomycin, 0.4 mg/ml G418 and 0.3 ug/ml tetracycline. For the HBV inhibition assay, doxycycline-free medium is used in order to allow virion production.
HBV inhibition activity in vitro was performed in 96 multiwell plates. During the initial (primary) screening compounds were first tested in triplicates at concentrations of 0.1 μM, 0.5 μM and 1 μM. For selected compounds, an 8-point dose-response curve was obtained using 1:2 serial dilutions (starting from 2.5 μM, 1.25 μM or 0.4 μM, depending on the degree of inhibition observed during the primary screening). From the dose-response curves, half maximal effective concentration (EC50) could be calculated (see also below).
In more detail, compounds—typically dissolved in DMSO stock solutions—were diluted to 2× the final desired concentration in 100 μl of the above medium (without doxycycline) and plated in three replicates in the 96-well plates.
Simultaneously, HepAD38 cells—extensively pre-washed in tetracycline-free medium in order to induce HBV production—were suspended at 2*10^4 cells in 100 μl of tetracycline-free medium and added to each well of the plate, to yield a final assay volume of 200 μl.
DMSO, used for stock solutions and compounds dilutions, is always present in the assays at a final concentration of 0.5%.
Plates were then incubated 96 hours at 37° C. and then subjected to cell viability assays and extracellular HBV quantification, in order to evaluate both the cytotoxic potential and the anti-viral activity of compounds.
Cytotoxicity was assessed by a commercial fluorescence assay that measures the metabolic activity of cells, directly related to cell viability (Cell Titer Blue, Promega). For each compound, cytotoxicity was evaluated at the same concentration employed to evaluate its anti-HBV activity. Anti-HBV activity was evaluated by quantification of extracellular HBV DNA with direct qPCR. In particular, supernatant was collected and centrifuged for cell debris clarification, viral DNA was extracted from virions by addition of lysis buffer (1 mM 1,4-dithiothreitol, 0.2% sodium dodecyl sulphate) and incubated at 95° C. for 10 min. Samples were then diluted 1:40 and real time PCR amplification was performed with SYBR green assay (Power SYBR™ Green PCR Master Mix-Thermo Fisher Scientific) and specific HBV primer (HBV-DF:5′-[…]-3′ (SEQ ID No. 1), HBV-DR:5′-[…]-3′ (SEQ ID No. 2)).
All HBV inhibition or antiviral activity data are typically reported in percent (%) relative to a non-treated reference sample. Excel and Graphpad Prism programs are typically used for data elaboration and EC50 calculation.

Which inhibition at 0.1 µM does the source give for Cc1cc(N)c(S(N)(=O)=O)cc1C(=O)Nc1cc(F)c(F)c(Cl)c1 [Example E65, 4-amino-N-(3-chloro-4,5-difluorophenyl)-2-methyl-5-sulfamoylbenzamide] here?
Its inhibition at 0.1 µM is over 50%.

With Cc1cc(N)c(S(N)(=O)=O)cc1C(=O)Nc1ccc(F)c(C(F)F)c1 [Example E68, 4-amino-N-(3-(difluoromethyl)-4-fluorophenyl)-2-methyl-5-sulfamoylbenzamide] as the compound, how does the inhibition at 0.1 µM read?
Its inhibition at 0.1 µM is over 50%.

With Nc1ncc(C(=O)Nc2cc(F)c(F)c(F)c2)cc1S(=O)(=O)N[C@H]1CC[C@H](O)CC1 [Example E58, trans-6-amino-5-(N-(4-hydroxycyclohexyl)sulfamoyl)-N-(3,4,5-trifluorophenyl)nicotinamide] as the compound, how does the inhibition at 0.1 µM read?
The inhibition at 0.1 µM was under 50%.

Same assay, conditions: Hepatitis B virus; 0.5 μM, HepAD38, 96 hours; read-out: HBV inhibition % (conc μM)

Which inhibition at 0.5 µM does the source give for Cc1cc(N)c(S(=O)(=O)N[C@@H](C)C(F)(F)F)cc1C(=O)Nc1cc(F)c(F)c(F)c1 [Example E64, (S)-4-amino-2-methyl-N-(3,4,5-trifluorophenyl)-5-(N-(1,1,1-trifluoropropan-2-yl)sulfamoyl)benzamide] here?
The inhibition at 0.5 µM was over 50%.

Which inhibition at 0.5 µM does the source give for Nc1ccc(S(N)(=O)=O)cc1C(=O)Nc1cc(F)c(F)c(F)c1 [Example E59, 2-amino-5-sulfamoyl-N-(3,4,5-trifluorophenyl)benzamide] here?
Its inhibition at 0.5 µM is under 50%.

Which inhibition at 0.5 µM does the source give for Nc1ccc(C(=O)Nc2ccc(F)c(C(F)(F)F)c2)cc1S(N)(=O)=O [Example E7, 4-amino-N-(4-fluoro-3-(trifluoromethyl)phenyl)-3-sulfamoylbenzamide] here?
The inhibition at 0.5 µM was over 50%.

With Nc1ccc(C(=O)Nc2cc(F)c(F)c(F)c2)cc1S(=O)(=O)NC1CCNCC1 [Example E28, 4-amino-3-(N-(piperidin-4-yl)sulfamoyl)-N-(3,4,5-trifluorophenyl)benzamide] as the compound, how does the inhibition at 0.5 µM read?
Its inhibition at 0.5 µM is under 50%.

With Nc1ccc(C(=O)Nc2cc(F)c(F)c(F)c2)cc1S(=O)(=O)N[C@H]1CCNC1 [Example E35, (S)-4-amino-3-(N-(pyrrolidin-3-yl)sulfamoyl)-N-(3,4,5-trifluorophenyl)benzamide] as the compound, how does the inhibition at 0.5 µM read?
The inhibition at 0.5 µM was under 50%.

With Nc1ccc(C(=O)Nc2ccc(F)c(Cl)c2)cc1S(N)(=O)=O [Example E10, 4-amino-N-(3-chloro-4-fluorophenyl)-3-sulfamoylbenzamide] as the compound, how does the inhibition at 0.5 µM read?
The inhibition at 0.5 µM was over 50%.

With Nc1ccc(C(=O)Nc2cc(F)c(F)c(F)c2)cc1S(=O)(=O)N[C@H]1C[C@@H](O)C1 [Example E24] as the compound, how does the inhibition at 0.5 µM read?
Its inhibition at 0.5 µM is over 50%.

Which inhibition at 0.5 µM does the source give for Nc1ccc(C(=O)Nc2cc(F)c(F)c(F)c2)cc1S(=O)(=O)N1CCC(O)(CO)CC1 [Example E50, 4-amino-3-((4-hydroxy-4-(hydroxymethyl)piperidin-1-yl)sulfonyl)-N-(3,4,5-trifluorophenyl)benzamide] here?
The inhibition at 0.5 µM was over 50%.

With Nc1ncc(C(=O)Nc2cc(F)c(F)c(F)c2)cc1S(N)(=O)=O [Example E37, 6-amino-5-sulfamoyl-N-(3,4,5-trifluorophenyl)nicotinamide] as the compound, how does the inhibition at 0.5 µM read?
Its inhibition at 0.5 µM is under 50%.

Which inhibition at 0.5 µM does the source give for Nc1ccc(C(=O)Nc2cc(F)c(F)c(F)c2)cc1S(=O)(=O)Nc1ccncc1 [Example E31, 4-amino-3-(N-(pyridin-4-yl)sulfamoyl)-N-(3,4,5-trifluorophenyl)benzamide] here?
The inhibition at 0.5 µM was under 50%.

With Cc1cc(N)c(S(N)(=O)=O)cc1C(=O)Nc1ccc(F)c(C#N)c1 [Example E69, 4-amino-N-(3-cyano-4-fluorophenyl)-2-methyl-5-sulfamoylbenzamide] as the compound, how does the inhibition at 0.5 µM read?
The inhibition at 0.5 µM was over 50%.

With Nc1ccc(C(=O)Nc2cc(F)c(F)c(F)c2)cc1S(=O)(=O)N1CCC(O)CC1 [Example E29, 4-amino-3-((4-hydroxypiperidin-1-yl)sulfonyl)-N-(3,4,5-trifluorophenyl)benzamide] as the compound, how does the inhibition at 0.5 µM read?
Its inhibition at 0.5 µM is over 50%.

For CC(C)(C)OC(=O)N1CC[C@H](NS(=O)(=O)c2cc(C(=O)Nc3cc(F)c(F)c(F)c3)ccc2N)C1 [Example E34, tert-butyl (S)-3-((2-amino-5-((3,4,5-trifluorophenyl)carbamoyl)phenyl)sulfonamido)pyrrolidine-1-carboxylate], which inhibition at 0.5 µM is on record?
The inhibition at 0.5 µM was over 50%.

With Nc1ccc(C(=O)Nc2ccc(Cl)nc2)cc1S(N)(=O)=O [Example E11, 4-amino-N-(6-chloropyridin-3-yl)-3-sulfamoylbenzamide] as the compound, how does the inhibition at 0.5 µM read?
The inhibition at 0.5 µM was under 50%.

For Nc1ccc(C(=O)Nc2ccc(F)c(C(F)F)c2)cc1S(=O)(=O)N[C@H]1CC[C@H](O)CC1 [Example E44, 4-amino-N-(3-(difluoromethyl)-4-fluorophenyl)-3-(N-((1r,4r)-4-hydroxycyclohexyl)sulfamoyl)benzamide], which inhibition at 0.5 µM is on record?
Its inhibition at 0.5 µM is over 50%.

Which inhibition at 0.5 µM does the source give for Nc1ccc(C(=O)Nc2cc(F)c(F)c(F)c2)cc1S(=O)(=O)N[C@H]1CC[C@@H](O)CC1 [Example E22, cis-4-amino-3-(N-(4-hydroxycyclohexyl)sulfamoyl)-N-(3,4,5-trifluorophenyl)benzamide] here?
Its inhibition at 0.5 µM is over 50%.

For N#Cc1cc(NC(=O)c2ccc(N)c(S(N)(=O)=O)c2)ccc1F [Example E8, 4-amino-N-(3-cyano-4-fluorophenyl)-3-sulfamoylbenzamide], which inhibition at 0.5 µM is on record?
Its inhibition at 0.5 µM is over 50%.

Which inhibition at 0.5 µM does the source give for Cc1c(F)cc(NC(=O)c2ccc(N)c(S(N)(=O)=O)c2)cc1F [Example E13, 4-amino-N-(3,5-difluoro-4-methylphenyl)-3-sulfamoylbenzamide] here?
Its inhibition at 0.5 µM is under 50%.

With Nc1ccc(C(=O)Nc2cc(F)c(F)c(F)c2)cc1S(=O)(=O)N[C@@H]1CC[C@H](O)C1 [Example E49, 4-amino-3-(N-((1R,3S)-3-hydroxycyclopentyl)sulfamoyl)-N-(3,4,5-trifluorophenyl)benzamide] as the compound, how does the inhibition at 0.5 µM read?
The inhibition at 0.5 µM was over 50%.

For Cc1cc(N)c(S(N)(=O)=O)cc1C(=O)Nc1ccc(Cl)nc1 [Example E66, 4-amino-N-(6-chloropyridin-3-yl)-2-methyl-5-sulfamoylbenzamide], which inhibition at 0.5 µM is on record?
The inhibition at 0.5 µM was under 50%.

Which inhibition at 0.5 µM does the source give for Cc1cc(N)c(S(=O)(=O)N[C@H]2CC[C@H](O)CC2)cc1C(=O)Nc1cc(F)c(F)c(F)c1 [Example E23, trans-4-amino-5-(N-(4-hydroxycyclohexyl)sulfamoyl)-2-methyl-N-(3,4,5-trifluorophenyl)benzamide] here?
Its inhibition at 0.5 µM is over 50%.

Which inhibition at 0.5 µM does the source give for Nc1ccc(C(=O)Nc2cc(F)c(F)c(F)c2)cc1S(=O)(=O)N[C@H]1CC[C@@H](O)C1 [Example E47, 4-amino-3-(N-((1S,3R)-3-hydroxycyclopentyl)sulfamoyl)-N-(3,4,5-trifluorophenyl)benzamide] here?
The inhibition at 0.5 µM was over 50%.

Same assay, conditions: Hepatitis B virus; 1 μM, HepAD38, 96 hours; read-out: HBV inhibition % (conc μM)

For Nc1cc(Br)c(C(=O)Nc2cc(F)c(F)c(F)c2)cc1S(N)(=O)=O [Example E6, 4-amino-2-bromo-5-sulfamoyl-N-(3,4,5-trifluorophenyl)benzamide], which inhibition at 1 µM is on record?
The inhibition at 1 µM was over 50%.

Which inhibition at 1 µM does the source give for CC(C)(C)OC(=O)N[C@@H]1CCC[C@@H]1NS(=O)(=O)c1cc(C(=O)Nc2cc(F)c(F)c(F)c2)ccc1N [Example E51, tert-butyl ((1R,2S)-2-((2-amino-5-((3,4,5-trifluorophenyl)carbamoyl)phenyl)sulfonamido)cyclopentyl)carbamate] here?
Its inhibition at 1 µM is over 50%.

Same assay, conditions: Hepatitis B virus; HepAD38, 8-point dose-response; read-out: HBV inh EC50

For Nc1cc(Cl)c(C(=O)Nc2cc(F)c(F)c(F)c2)cc1S(N)(=O)=O [Example E5, 4-amino-2-chloro-5-sulfamoyl-N-(3,4,5-trifluorophenyl)benzamide], which EC50 is on record?
The EC50 was under 1 µM.

For Nc1ccc(S(=O)(=O)N2CCC(O)CC2)cc1C(=O)Nc1cc(F)c(F)c(F)c1 [Example E62, 2-amino-5-((4-hydroxypiperidin-1-yl)sulfonyl)-N-(3,4,5-trifluorophenyl)benzamide], which EC50 is on record?
The EC50 was under 1 µM.

For Cc1cc(N)c(S(N)(=O)=O)cc1C(=O)Nc1ccc(F)c(Cl)c1 [Example E60, 4-amino-N-(3-chloro-4-fluorophenyl)-2-methyl-5-sulfamoylbenzamide], which EC50 is on record?
The EC50 was under 1 µM.

Same assay, conditions: concentration not given, HepAD38

Which “HBV inhibition % (conc μM)” value does the source give for Cc1cc(NC(=O)c2cc(S(N)(=O)=O)c(N)cc2C)ccc1F [Example E40, 4-amino-N-(4-fluoro-3-methylphenyl)-2-methyl-5-sulfamoylbenzamide] here?
Its value is “A (HBV inhibition greater than 50% at the concentration indicated in the table)”.
